Experimental data as given in patent publication US11147801B2, “Methods of use for trisubstituted benzotriazole derivatives as dihydroorotate oxygenase inhibitors” (Aurigene Discovery Technologies Limited, priority 2017, dated 2021).

Tests used:
MOLP-2 = test: Heme line growth assay (Cell-Titer Glo), 4-day and extended 7-day; format: cell-based, human; set-up: key to Sensitivity 7-day: *: insensitive; **: intermediate; ***: sensitive
Experimental: (§1) A follow-up screen was performed on an expanded panel of cell lines of heme lineage in a 4-day growth assay. Growth was assessed by Cell-Titer Glo measurements on day 0 and day 4.
(§2) Compound 1, of which diffuse large B cell lymphoma (DLBCL) lines were particularly sensitive (8/11 or 73%). A subset of the heme lines that were of intermediate sensitivity (defined as >50% and <75% growth rate inhibition) or insensitive (defined as <50% growth rate inhibition) to compound 1 in this follow-up screen were subjected to extended growth assays to evaluate if increased treatment time modulated their sensitivity profile. Specifically, these heme lines were pretreated with Compound 1 for three days at the indicated concentrations and then re-plated for a standard 4-day growth assay in fresh media/drug.

F36P = test: as above; format: cell-based, human; set-up: key to Sensitivity 7-day: *: insensitive; **: intermediate; ***: sensitive
Experimental: as §1, §2

THP-1 = test: as above; format: cell-based, human; set-up: key to Sensitivity 7-day: *: insensitive; **: intermediate; ***: sensitive
Experimental: as §1, §2

AML-193 = test: as above; format: cell-based, human; set-up: key to Sensitivity 7-day: *: insensitive; **: intermediate; ***: sensitive
Experimental: as §1, §2

KMS12BM = test: as above; format: cell-based, human; set-up: key to Sensitivity 7-day: *: insensitive; **: intermediate; ***: sensitive
Experimental: as §1, §2

LP1 = test: as above; format: cell-based, human; set-up: key to Sensitivity 7-day: *: insensitive; **: intermediate; ***: sensitive
Experimental: as §1, §2

HuNS1 = test: as above; format: cell-based, human; set-up: key to Sensitivity 7-day: *: insensitive; **: intermediate; ***: sensitive
Experimental: as §1, §2

U266B1 = test: as above; format: cell-based, human; set-up: key to Sensitivity 7-day: *: insensitive; **: intermediate; ***: sensitive
Experimental: as §1, §2

BDCM = test: as above; format: cell-based, human; set-up: key to Sensitivity 7-day: *: insensitive; **: intermediate; ***: sensitive
Experimental: as §1, §2

SUDHL4 = test: as above; format: cell-based, human; set-up: key to Sensitivity 7-day: *: insensitive; **: intermediate; ***: sensitive
Experimental: as §1, §2

HEL = test: as above; format: cell-based, human; set-up: key to Sensitivity 7-day: *: insensitive; **: intermediate; ***: sensitive
Experimental: as §1, §2

KG-1 = test: as above; format: cell-based, human; set-up: key to Sensitivity 7-day: *: insensitive; **: intermediate; ***: sensitive
Experimental: as §1, §2

REC-1 = test: as above; format: cell-based, human; set-up: key to Sensitivity 7-day: *: insensitive; **: intermediate; ***: sensitive
Experimental: as §1, §2

TF1 = test: as above; format: cell-based, human; set-up: key to Sensitivity 7-day: *: insensitive; **: intermediate; ***: sensitive
Experimental: as §1, §2

cancer lines = test: Cell growth assays with uridine supplemented into the medium (uridine rescue); format: cell-based
Experimental: To confirm that the effects of Compound 1 in impairing cell growth/viability were due to specific inhibition of DHODH, cell growth assays were performed with varying amounts of uridine supplemented into the medium.

GDM-1 = test: Heme line growth assay (Cell-Titer Glo), 4-day and extended 7-day; format: cell-based, human
Experimental: as §1, §2

SKNO-1 = test: as above; format: cell-based, human
Experimental: as §1, §2

SUM159PT = test: Tumor cell line panel screen, 72 hrs; format: cell-based; settings: Homo sapiens, SUM-159-PT, triple negative breast cancer
Experimental: (§3) A tumor cell line panel screen aimed at identifying tumor cell subsets that were particularly sensitive to inhibition of DHODH with Compound 1 was performed. Compound 1 is represented by the following structural formula: […]
(§4) These cell lines were treated with Compound 1 for a total of 72 hrs.
(§5) Table 1 is a list of some of the sensitive cell lines to Compound 1 along with GI50 values and max growth response. A maximum inhibition of 100 represents complete growth inhibition; a max inhibition value>100 represents cell killing.

MV411 = test: Tumor cell line panel screen, 72 hrs; format: cell-based; settings: Homo sapiens, MV4-11, MV411, child acute myeloid leukemia
Experimental: as §3, §4, §5

SUDHL1 = test: Tumor cell line panel screen, 72 hrs; format: cell-based; settings: Homo sapiens, SU-DHL-1, SUDHL1, anaplastic large cell lymphoma
Experimental: as §3, §4, §5

CJM = test: Tumor cell line panel screen, 72 hrs; format: cell-based; settings: Homo sapiens, melanoma
Experimental: as §3, §4, §5

MOLM13 = test: Tumor cell line panel screen, 72 hrs; format: cell-based; settings: Homo sapiens, MOLM-13, MOLM13, acute myeloid leukemia
Experimental: as §3, §4, §5

SR786 = test: Tumor cell line panel screen, 72 hrs; format: cell-based; settings: Homo sapiens, SR-786, SR786, anaplastic large cell lymphoma
Experimental: as §3, §4, §5

SUDHL5 = test: Tumor cell line panel screen, 72 hrs; format: cell-based; settings: Homo sapiens, SU-DHL-5, SUDHL5, diffuse large B cell lymphoma
Experimental: as §3, §4, §5

KYSE510 = test: Tumor cell line panel screen, 72 hrs; format: cell-based; settings: Homo sapiens, KYSE-510, KYSE510, esophageal squamous cell carcinoma
Experimental: as §3, §4, §5

[1] = 3 days pretreatment then 4-day growth assay
[2] = acute myeloid leukemia, 4-day growth assay

## Cc1ccccc1-c1ccc(-c2cc(C(=O)O)c3c(c2)nnn3C)cc1 [Compound 1, 1-methyl-5-(2′-methyl-[1,1′-biphenyl]-4-yl)-1H-benzo[d][1,2,3]triazole-7-carboxylic Acid]
MOLP-2; MOLP-2, 3 days pretreatment then 4-day growth assay
  Sensitivity 7-day: ***
MOLP-2; MOLP-2, multiple myeloma, 4-day growth assay
  Sensitivity 4-day: ** (intermediate)
F36P; [1]
  Sensitivity 7-day: ***
F36P; [2]
  Sensitivity 4-day: ** (intermediate)
THP-1; THP-1, 3 days pretreatment then 4-day growth assay
  Sensitivity 7-day: ***
THP-1; THP-1, acute myeloid leukemia, 4-day growth assay
  Sensitivity 4-day: ** (intermediate)
AML-193; AML-193, 3 days pretreatment then 4-day growth assay
  Sensitivity 7-day: ***
AML-193; AML-193, acute myeloid leukemia, 4-day growth assay
  Sensitivity 4-day: ** (intermediate)
KMS12BM; [1]
  Sensitivity 7-day: ***
KMS12BM; multiple myeloma, 4-day growth assay
  Sensitivity 4-day: ** (intermediate)
LP1; LP1, 3 days pretreatment then 4-day growth assay
  Sensitivity 7-day: ***
LP1; LP1, multiple myeloma, 4-day growth assay
  Sensitivity 4-day: * (insensitive)
HuNS1; HuNS1, 3 days pretreatment then 4-day growth assay
  Sensitivity 7-day: ***
HuNS1; HuNS1, multiple myeloma, 4-day growth assay
  Sensitivity 4-day: * (insensitive)
U266B1; U266B1, 3 days pretreatment then 4-day growth assay
  Sensitivity 7-day: ***
U266B1; U266B1, multiple myeloma, 4-day growth assay
  Sensitivity 4-day: * (insensitive)
BDCM; [1]
  Sensitivity 7-day: ***
BDCM; [2]
  Sensitivity 4-day: ** (intermediate)
SUDHL4; SUDHL4, 3 days pretreatment then 4-day growth assay
  Sensitivity 7-day: ***
SUDHL4; SUDHL4, diffuse large B cell lymphoma, 4-day growth assay
  Sensitivity 4-day: ** (intermediate)
HEL; [1]
  Sensitivity 7-day: ***
HEL; [2]
  Sensitivity 4-day: ** (intermediate)
KG-1; KG-1, 3 days pretreatment then 4-day growth assay
  Sensitivity 7-day: ***
KG-1; KG-1, acute myeloid leukemia, 4-day growth assay
  Sensitivity 4-day: * (insensitive)
REC-1; REC-1, 3 days pretreatment then 4-day growth assay
  Sensitivity 7-day: ***
REC-1; REC-1, mantle cell lymphoma, 4-day growth assay
  Sensitivity 4-day: * (insensitive)
TF1; TF1, 3 days pretreatment then 4-day growth assay
  Sensitivity 7-day: ***
TF1; TF1, acute myeloid leukemia, 4-day growth assay
  Sensitivity 4-day: * (insensitive)
Cancer lines; supraphysiologic uridine (25 μM and 100 μM), up to 10 μM of compound
  Rescue of growth effects by exogenous uridine: completely rescued
Cancer lines; uridine close to physiologic (5 μM)
  Rescue of growth effects by exogenous uridine: partially rescued
GDM-1; GDM-1, 3 days pretreatment then 4-day growth assay
  Sensitivity 7-day: ** (intermediate)
GDM-1; GDM-1, acute myeloid leukemia, 4-day growth assay
  Sensitivity 4-day: * (insensitive)
SKNO-1; SKNO-1, 3 days pretreatment then 4-day growth assay
  Sensitivity 7-day: ** (intermediate)
SKNO-1; SKNO-1, acute myeloid leukemia, 4-day growth assay
  Sensitivity 4-day: * (insensitive)
SUM159PT
  GI50: 140 nM
MV411
  GI50: 270 nM
SUDHL1
  GI50: 40 nM
CJM
  GI50: 620 nM
MOLM13
  GI50: 60 nM
SR786
  GI50: 50 nM
SUDHL5
  GI50: 20 nM
KYSE510
  GI50: 130 nM
